Legend:
Assay in all cases: cells
Assay type in all cases: functional
Details in all cases: Homo sapiens, read-out: GI
[1] = system: NCI-H460
Description: Growth inhibition of Homo sapiens (human) NCI-H460 cells at 100 ug/ml by MTT assay

[2] = system: KB
Description: Growth inhibition of Homo sapiens (human) KB cells at 100 ug/ml by MTT assay

[3] = system: Bel-7402
Description: Growth inhibition of Homo sapiens (human) Bel7402 cells at 100 ug/ml by MTT assay

SMILES: O=C(CCCCCCCS)Nc1ccccc1 [8-MERCAPTO-OCTANOIC ACID PHENYLAMIDE]
- inhibition of growth at 100 µg/mL [1]: 32.4%
- inhibition of growth at 100 µg/mL [2]: 18.6%

SMILES: CC(=O)SCCCCCCCC(=O)Nc1ccccc1
- inhibition of growth at 100 µg/mL [3]: 66.3%
- inhibition of growth at 100 µg/mL [1]: 82.3%
- inhibition of growth at 100 µg/mL [2]: 77%

Source: ChEMBL document CHEMBL3044592, “Synthesis, antiproliferation, and docking studies of N-phenyl-lipoamide and 8-mercapto-N-phenyloctanamide derivatives: effects of C6 position thiol moiety” (2012)
